Reference: the supplement of paper PMC10331698
± gives the standard deviation of the averaged measurements.

Assays:
Assay in all cases: level (log10 ratio to DMSO vehicle control); higher = higher biomarker level / cell amount than vehicle control
[1] = compound: C=CC(F)(F)C(F)(F)C(F)(F)C(F)(F)C(F)(F)C(F)(F)C(F)(F)C(F)(F)C=C [1,8-Divinylperfluorooctane]; conditions: in DMSO
Procedure: (§1)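 BioMAP Diversity Plus panel of 12 human primary cell co-culture systems (3C, 4H, LPS, SAg, BT, BF4T, BE3C, CASM3C, HDF3CGF, KF3CT, MyoF, Mphg). Compounds were added 1 h before stimulation and left for 24 h (MyoF 48 h; BT 72 h for soluble read-outs or 6 d for IgG). Biomarkers were read by ELISA, cytotoxicity by SRB, PBMC viability and proliferation by Alamar Blue. Each well value was divided by the mean of 8 DMSO control wells on the same plate and log10 transformed; duplicate blinded samples were tested at 4 concentrations.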

[2] = compound: O=C(O)C(F)(F)C(F)(F)C(F)(F)C(F)(F)F [Perfluoropentanoic acid]; conditions: in DMSO
Procedure: as §1

[3] = compound: O=C(O)C(F)(F)C(F)(F)C(F)(F)OC(F)(C(F)(F)F)C(F)(F)F [Perfluoro-4-isopropoxybutanoic acid]; conditions: in DMSO
Procedure: as §1

[4] = compound: O=C(O)C(F)(F)C(F)(F)C(F)F [4H-Perfluorobutanoic acid]; conditions: in DMSO
Procedure: as §1

[5] = compound: O=C(O)C(F)(F)C(F)(F)F [Perfluoropropanoic acid]; conditions: in DMSO
Procedure: as §1

[6] = compound: O=C(O)C(F)(F)OC(F)(F)C(F)(F)OC(F)(F)C(=O)O [Perfluoro-3,6-dioxaoctane-1,8-dioic acid]; conditions: in DMSO
Procedure: as §1

[7] = compound: OCCCC(F)(F)C(F)(F)C(F)(F)C(F)(F)C(F)(F)C(F)(F)C(F)(F)F [7:3 Fluorotelomer alcohol]; conditions: 6700 nM; in DMSO
Procedure: as §1

Row | Test System | level (log10) ([1]; 6700 nM) | level (log10) ([1]; 20000 nM) | level (log10) ([2]; 6700 nM) | level (log10) ([2]; 20000 nM) | level (log10) ([2]; 60000 nM) | level (log10) ([3]; 6700 nM) | level (log10) ([3]; 20000 nM) | level (log10) ([3]; 60000 nM) | level (log10) ([4]; 6700 nM) | level (log10) ([4]; 20000 nM) | level (log10) ([4]; 60000 nM) | level (log10) ([5]; 6700 nM) | level (log10) ([5]; 20000 nM) | level (log10) ([5]; 60000 nM) | level (log10) ([6]; 6700 nM) | level (log10) ([6]; 20000 nM) | level (log10) ([6]; 60000 nM) | level (log10) [7]
1 | KF3CT:PAI-I | 0.0215 ± 0.00071 | 0.018 ± 0.013 | 0.0005 ± 0.021 | -0.003 | 0.004 ± 0.0057 | -0.019 ± 0.0028 | -0.0265 ± 0.015 | -0.0125 ± 0.018 | 0.0015 ± 0.022 | 0.046 ± 0.02 | -0.0075 ± 0.073 | 0.0095 ± 0.07 | 0.021 ± 0.0071 | -0.006 ± 0.1 | -0.0145 ± 0.025 | -0.0125 ± 0.00071 | 0.003 ± 0.018 | -0.017 ± 0.025
2 | MyoF:Collagen I | -0.0145 ± 0.016 | -0.005 ± 0.0028 | -0.0065 ± 0.0092 | -0.008 ± 0.0085 | 0.0065 ± 0.015 | -0.0045 ± 0.0035 | -0.0035 ± 0.021 | 0.0075 ± 0.016 | -0.0215 ± 0.022 | -0.0115 ± 0.018 | -0.0115 ± 0.0092 | -0.0205 ± 0.011 | -0.0075 ± 0.026 | 0.0255 ± 0.047 | 0.0015 ± 0.015 | -0.005 ± 0.0099 | 0.002 ± 0.011 | -0.0125 ± 0.011
3 | CASM3C:SRB | 0.002 ± 0.0042 | -0.003 ± 0.0014 | 0.0095 ± 0.0021 | -0.008 ± 0.0014 | 0.004 ± 0.0099 | 0.0015 ± 0.005 | -0.007 ± 0.0071 | 0.0015 ± 0.012 | -0.0015 ± 0.0078 | -0.002 ± 0.0071 | 0 ± 0.0099 | 0.0035 ± 0.00071 | -0.0015 ± 0.00071 | -0.0015 ± 0.005 | 0.0035 ± 0.0021 | -0.006 ± 0.0028 | 0.0085 ± 0.005 | 0.006 ± 0.0028
4 | BE3C:SRB | -0.0005 ± 0.00071 | 0 ± 0.0014 | 0.002 ± 0.0085 | -0.0035 ± 0.005 | 0 ± 0.016 | -0.0035 ± 0.00071 | -0.0095 ± 0.00071 | 0.001 ± 0.0085 | -0.003 ± 0.0014 | -0.004 ± 0.0099 | 0.0025 ± 0.0021 | -0.0015 ± 0.0021 | -0.003 | 0.0035 ± 0.00071 | -0.0005 ± 0.0021 | -0.0035 ± 0.0021 | 0.0025 ± 0.011 | -0.0065 ± 0.0092
5 | CASM3C:Proliferation | -0.018 ± 0.027 | 0.0305 ± 0.013 | 0.0185 ± 0.021 | -0.0305 ± 0.067 | 0.0215 ± 0.052 | -0.018 ± 0.0099 | -0.037 ± 0.025 | -0.0085 ± 0.057 | 0.0045 ± 0.011 | -0.0185 ± 0.066 | 0.0045 ± 0.04 | 0.0065 ± 0.0035 | -0.0355 ± 0.063 | 0.017 ± 0.033 | 0.0055 ± 0.0035 | -0.0135 ± 0.025 | -0.0075 ± 0.0092 | 0.052 ± 0.0057
6 | HDF3CGF:TIMP-2 | 0.025 ± 0.013 | -0.0115 ± 0.012 | 0.009 ± 0.024 | -0.0155 ± 0.018 | -0.0025 ± 0.011 | -0.008 ± 0.017 | 0.0335 ± 0.022 | -0.004 ± 0.023 | -0.0295 ± 0.066 | -0.01 ± 0.044 | -0.003 ± 0.059 | -0.0495 ± 0.028 | -0.0155 ± 0.05 | -0.037 ± 0.073 | -0.0145 ± 0.035 | -0.0075 ± 0.011 | 0.001 ± 0.027 | 0.0005 ± 0.013
7 | HDF3CGF:CXCL10/IP-10 | 0.0205 ± 0.035 | 0.017 ± 0.035 | 0 ± 0.014 | -0.011 ± 0.0028 | 0.006 ± 0.0057 | -0.0135 ± 0.0064 | -0.029 ± 0.011 | -0.0615 ± 0.0035 | -0.0145 ± 0.016 | 0.0025 ± 0.0021 | 0.0085 ± 0.012 | -0.005 ± 0.0085 | -0.001 ± 0.0028 | 0.02 ± 0.0071 | 0.0105 ± 0.023 | -0.004 ± 0.011 | -0.0085 ± 0.023 | -0.047 ± 0.03
8 | BE3C:tPA | -0.0145 ± 0.0021 | -0.0015 ± 0.015 | -0.059 ± 0.011 | -0.043 ± 0.017 | -0.013 ± 0.064 | -0.0285 ± 0.018 | -0.0385 ± 0.0035 | -0.0025 ± 0.057 | -0.016 ± 0.0014 | -0.0305 ± 0.012 | -0.006 ± 0.016 | -0.016 ± 0.0042 | -0.028 ± 0.028 | 0 ± 0.0014 | -0.014 ± 0.018 | -0.0135 ± 0.0035 | -0.0015 ± 0.0021 | -0.014 ± 0.025
9 | KF3CT:CXCL8/IL-8 | -0.0035 ± 0.033 | 0.011 ± 0.0057 | -0.0025 ± 0.019 | -0.0035 ± 0.005 | 0.016 ± 0.0071 | 0.0175 ± 0.018 | 0.0335 ± 0.005 | 0.043 ± 0.071 | 0.0025 ± 0.0078 | 0.01 ± 0.0085 | 0.017 ± 0.0042 | -0.0125 ± 0.011 | 0.0095 ± 0.0092 | 0.0475 ± 0.03 | -0.0015 ± 0.0078 | 0.0025 ± 0.033 | 0.026 ± 0.025 | 0.0035 ± 0.043
10 | lMphg:M-CSF | -0.0315 ± 0.005 | 0.0015 ± 0.039 | -0.028 ± 0.045 | 0.006 ± 0.035 | 0.0095 ± 0.049 | -0.016 ± 0.0028 | -0.0185 ± 0.015 | 0.016 ± 0.0085 | -0.0115 ± 0.005 | -0.015 ± 0.0028 | -0.0175 ± 0.0064 | -0.014 ± 0.0085 | -0.0155 ± 0.00071 | 0.003 ± 0.017 | -0.009 | -0.0185 ± 0.015 | 0.01 ± 0.042 | -0.0205 ± 0.037
11 | CASM3C:Serum Amyloid A | -0.0145 ± 0.0035 | -0.011 ± 0.0085 | -0.003 ± 0.0071 | -0.013 ± 0.011 | -0.0045 ± 0.033 | -0.0025 ± 0.0078 | -0.0295 ± 0.013 | 0.0165 ± 0.081 | -0.056 ± 0.038 | -0.083 ± 0.055 | -0.0715 ± 0.11 | -0.05 ± 0.033 | -0.0755 ± 0.026 | -0.0465 ± 0.054 | -0.012 ± 0.0028 | -0.0235 ± 0.011 | 0.0265 ± 0.06 | -0.0135 ± 0.028
12 | HDF3CGF:TIMP-1 | 0.014 ± 0.016 | 0.008 ± 0.017 | -0.0195 ± 0.0021 | -0.032 ± 0.014 | 0.0115 ± 0.011 | -0.023 ± 0.048 | -0.0155 ± 0.043 | 0.018 ± 0.11 | -0.015 ± 0.031 | -0.007 ± 0.0014 | 0.0115 ± 0.021 | -0.0195 ± 0.016 | -0.0045 ± 0.0064 | 0.038 ± 0.025 | -0.037 ± 0.0099 | -0.009 ± 0.0028 | 0.041 ± 0.051 | -0.012
13 | KF3CT:CD54/ICAM-1 | -0.0145 ± 0.00071 | -0.002 | 0.004 ± 0.0057 | 0.001 ± 0.013 | 0.016 ± 0.028 | 0.001 ± 0.016 | -0.035 ± 0.0071 | -0.0495 ± 0.016 | 0.005 ± 0.0028 | -0.0115 ± 0.0035 | -0.006 ± 0.011 | -0.0135 ± 0.0092 | -0.0015 ± 0.0021 | 0.004 ± 0.0028 | 0 ± 0.0057 | 0.01 | 0.0065 ± 0.015 | -0.022 ± 0.0071
14 | HDF3CGF:Collagen I | 0.043 ± 0.054 | 0.0595 ± 0.016 | -0.0295 ± 0.012 | -0.01 ± 0.0014 | 0.003 ± 0.064 | -0.0285 ± 0.067 | -0.043 ± 0.078 | 0.032 ± 0.12 | -0.0445 ± 0.028 | -0.024 ± 0.072 | 0.0525 ± 0.029 | 0 ± 0.038 | -0.031 ± 0.1 | 0.0375 ± 0.012 | -0.011 ± 0.068 | -0.0135 ± 0.053 | 0.0405 ± 0.015 | -0.0325 ± 0.046
15 | HDF3CGF:CXCL9/MIG | 0.006 ± 0.0057 | -0.001 ± 0.024 | -0.004 ± 0.0057 | -0.004 ± 0.018 | -0.003 ± 0.02 | -0.0125 ± 0.023 | 0.0185 ± 0.005 | 0.009 ± 0.024 | -0.0015 ± 0.033 | -0.0035 ± 0.025 | -0.0125 ± 0.028 | -0.019 ± 0.0014 | -0.01 ± 0.014 | -0.0195 ± 0.026 | -0.0185 ± 0.016 | 0.0135 ± 0.0092 | 0.0085 ± 0.005 | -0.0225 ± 0.018
16 | HDF3CGF:MMP-1 | -0.0035 ± 0.005 | 0.0165 ± 0.012 | -0.0165 ± 0.013 | -0.0215 ± 0.0021 | -0.0215 ± 0.011 | -0.0055 ± 0.0035 | 0 ± 0.0028 | -0.0015 ± 0.011 | 0.0005 ± 0.0021 | -0.0025 ± 0.0035 | 0.0075 ± 0.021 | -0.0065 ± 0.0064 | 0.0045 ± 0.013 | 0.0035 ± 0.015 | -0.004 ± 0.013 | -0.003 ± 0.014 | -0.0025 ± 0.018 | -0.034 ± 0.021
